Legend:
[1] = system: Phospho-ERK1/2(THR202/TYR204) in NCI-H358 cells express KRAS G12C; assay: Phospho-ERK1/2(THR202/TYR204) HTRF assay; format: cell-based; details: Homo sapiens; NCI-H358, 2 hours incubation; read-out: p-ERK inhibition in NCI-H358 IC50
Protocol: NCI-H358 cells express KRAS G12C were cultured in RPMI 1640 medium (Gibco) containing 10% fetal bovine serum (Gibco). Cells in culture medium were plated in 96-well plates at a concentration of 40,000 cells/well and allowed to attach overnight. The next day, culture medium was removed and added compounds diluted in assay medium (RPMI 1640, 0.1% EFBS). After 2 hours incubation in a 37° C./5% CO2 cell incubator, the assay medium was removed, then 50 μL of 1× supplemented lysis buffer (Cisbio) was added and the plates were incubated at 25° C. for 45 min with shaking. 10 μL of cell lysates from the 96-well plates were transferred to a 384-well plate (Greiner) containing 2.5 µL/well HTRF® pre-mixed antibodies (Cisbio 64AERPEH).
Incubate 4 hours at 25° C. and then read HTRF signals on Tecan Spark multimode microplate reader. The data were analyzed using a 4-parameter logistic model to calculate IC50 values.

KRAS G12C = target: T1, KRAS G12C (Homo sapiens, UniProt P01116, G12C); assay: SOS1 catalyzed nucleotide exchange assay (TR-FRET); format: biochemical; details: GDP-loaded HIS-KRAS(G12C), 1 hour pre-incubation with compound
T1 construct: HIS-KRAS (G12C, aa 2-185, Sino biological); purchased Sino biological
Protocol: 1. SOS1 Catalyzed Nucleotide Exchange Assay
HIS-KRAS (G12C, aa 2-185, Sino biological) was diluted to […] EDTA buffer (20 mM HEPES, pH 7.4, 50 mM NaCl, 10 mM EDA, 0.01% (v/v) Tween-20) and incubated for 30 min at 25° C. The EDTA pretreated HIS-KRAS(G12C) was diluted to 12 nM in assay buffer (25 mM HEPES, pH 7.4, 120 mM NaCl, 5 mM MgCl2, 1 mM DTI, 0.01% (v/v) Tween 20, 0.1% (w/v) BSA) containing 120 nM GDP(Sigma) and Mab Anti 6HIS-Tb cryptate Gold(Cisbio) and incubated for 1 hour at 25° C. to prepare GDP-loaded HIS-KRAS(G12C). The GDP-loaded HIS-KRAS(G12C) was pre-incubation with diluted compounds in a 384-well plate (Greiner) for 1 hour, then purified SOS 1ExD (Flag tag, aa 564-1049) and BODIPY™FL GTP (Invitrogen) were added to the assay wells (Final concentration: 3 nM HIS-KRAS(G12C), 2 μM SOS1 ExD, 80 nM BODIPY™FL GTP, 21 ng/mL MAb Anti 6HS-Tb cryptate Gold) and incubated for 4 hours at 25° C. TR-FRET signals were then read on Tecan Spark multimode microplate reader. The parameters were F486: Excitation 340 (35) nm, Emission 486 (10) nm, Lag time 100 μs, Integration time […]; F515: Excitation 340 (35) nm, Emission 515 (10) nm, Lag time […], Integration time 200 s. TR-FRET ratios for each individual wells were calculated by equation: TR-FRET ratio=(Signal F515/Signal F486)*10000. Then the data were analyzed using a 4-parameter logistic model to calculate IC50 values.

[2] = system: NCI-H358 cells express KRAS G12C; assay: Cell growth inhibition assay (CCK-8); format: cell-based; details: Homo sapiens, 144 h; NCI-H358, 6 days incubation
Protocol: 3. Cell Growth inhibition assay
NCI-H358 cells express KRAS G12C were cultured in RPMI 1640 medium (Gibco) containing 10% fetal bovine serum (Gibco). Cells in culture medium were plated in 96-well plates at a concentration of 3000 cells/well ([…]) and allowed to attach overnight. The next day, compounds were diluted in culture medium and added to the plates. After 6 days incubation in a 37° C./5% CO2 cell incubator, the medium was removed, then 100 μL of 1×CCK-8 (MCE) in culture medium was added in each well. The plates were incubated 1.5-2 hours in a 37° C./5% CO2 cell incubator. OD450 signals were read on Tecan Spark multimode microplate reader and analyzed using a 4-parameter logistic model to calculate IC50 values.

T1 sequence (P01116 2-185 isoform P01116-2 G12C): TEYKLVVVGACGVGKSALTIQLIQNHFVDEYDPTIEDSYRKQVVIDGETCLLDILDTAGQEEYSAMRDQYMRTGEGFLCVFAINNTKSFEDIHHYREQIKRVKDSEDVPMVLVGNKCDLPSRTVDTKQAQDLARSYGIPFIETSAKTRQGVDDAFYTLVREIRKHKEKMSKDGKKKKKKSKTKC

Structure (SMILES)	IC50 [1] [nM]	IC50 (KRAS G12C) [nM]	IC50 [2] [nM]
C=CC(=O)N1CCN(c2nc(O[C@H]3CC[C@H](N(C)C)CC3)nc3c2CCN(c2cccc4ccccc24)C3)CC1CC#N (some centres unmarked) [Compound 1, 2-(1-acryloyl-4-(2-(((1r,4r)-4-(dimethylamino)cyclohexyl)oxy)-7-(naphthalen-1-yl)-5,6,7,8-tetrahydropyrido[3,4-d]pyrimidin-4-yl)piperazin-2-yl)acetonitrile]	3200		
C=CC(=O)N1CCN(c2nc(OCC3(CN(C)C)CC3)nc3c2CCN(c2cccc4ccn(C)c(=O)c24)C3)CC1CC#N (centres unmarked) [Compound 2, 2-(1-acryloyl-4-(2-((1-((dimethylamino)methyl)cyclopropyl)methoxy)-7-(2-methyl-1-oxo-1,2-dihydroisoquinolin-8-yl)-5,6,7,8-tetrahydropyrido[3,4-d]pyrimidin-4-yl)piperazin-2-yl)acetonitrile]		> 500	
C=CC(=O)N1CCN(c2nc(OCC3(N(C)C)CCC3)nc3c2CCN(c2cccc4ccccc24)C3)CC1CC#N (centres unmarked) [Compound 9, 2-(1-acryloyl-4-(2-((1-(dimethylamino)cyclobutyl)methoxy)-7-(naphthalen-1-yl)-5,6,7,8-tetrahydropyrido[3,4-d]pyrimidin-4-yl)piperazin-2-yl)acetonitrile]	1150		888
C=CC(=O)N1CCN(c2nc(OC3CCCCC3N(C)C)nc3c2CCN(c2cccc4ccccc24)C3)CC1CC#N (centres unmarked) [Compound 11, 2-(1-acryloyl-4-(2-((2-(dimethylamino)cyclohexyl)oxy)-7-(naphthalen-1-yl)-5,6,7,8-tetrahydropyrido[3,4-d]pyrimidin-4-yl)piperazin-2-yl)acetonitrile]	9860		
C=CC(=O)N1CCN(c2nc(OC3CCC(N(C)C)C3)nc3c2CCN(c2cccc4ccccc24)C3)CC1CC#N (centres unmarked) [Compound 13, 2-(1-acryloyl-4-(2-((3-(dimethylamino)cyclopentyl)oxy)-7-(naphthalen-1-yl)-5,6,7,8-tetrahydropyrido[3,4-d]pyrimidin-4-yl)piperazin-2-yl)acetonitrile]	1210	684	
C=CC(=O)N1CCN(c2nc(OC3CCCC3N3CCN(C)CC3)nc3c2CCN(c2cccc4ccccc24)C3)CC1CC#N (centres unmarked) [Compound 16, 2-(1-acryloyl-4-(2-((2-(4-methylpiperazin-1-yl)cyclopentyl)oxy)-7-(naphthalen-1-yl)-5,6,7,8-tetrahydropyrido[3,4-d]pyrimidin-4-yl)piperazin-2-yl)acetonitrile]	7060		
C=CC(=O)N1CCN(c2nc(OCC3CC3CN(C)C)nc3c2CCN(c2cccc4ccccc24)C3)CC1CC#N (centres unmarked) [Compound 19, 2-(1-acryloyl-4-(2-((2-((dimethylamino)methyl)cyclopropyl)methoxy)-7-(naphthalen-1-yl)-5,6,7,8-tetrahydropyrido[3,4-d]pyrimidin-4-yl)piperazin-2-yl)acetonitrile]	748	372	
C=CC(=O)N1CCN(c2nc(OCCC3CCCC3N(C)C)nc3c2CCN(c2cccc4ccccc24)C3)CC1CC#N (centres unmarked) [Compound 21, 2-(1-acryloyl-4-(2-(2-(2-(dimethylamino)cyclopentyl)ethoxy)-7-(naphthalen-1-yl)-5,6,7,8-tetrahydropyrido[3,4-d]pyrimidin-4-yl)piperazin-2-yl)acetonitrile]	> 1000		
C=CC(=O)N1CCN(c2nc(OCC3CCC(N(C)C)C3)nc3c2CCN(c2cccc(F)c2Cl)C3)CC1CC#N (centres unmarked) [Compound 29, 2-(1-acryloyl-4-(7-(2-chloro-3-fluorophenyl)-2-((3-(dimethylamino)cyclopentyl)methoxy)-5,6,7,8-tetrahydropyrido[3,4-d]pyrimidin-4-yl)piperazin-2-yl)acetonitrile]	> 1000		
C=CC(=O)N1CCN(c2nc(OCC3(N4CCCC4)CC3)nc3c2CCN(c2cccc4ccccc24)C3)CC1CC#N (centres unmarked) [Compound 32, 2-(1-acryloyl-4-(7-(naphthalen-1-yl)-2-((1-(pyrrolidin-1-yl)cyclopropyl)methoxy)-5,6,7,8-tetrahydropyrido[3,4-d]pyrimidin-4-yl)piperazin-2-yl)acetonitrile]			696
C=CC(=O)N1CCN(c2nc(OCC3CCC(N4CCCC4)C3)nc3c2CCN(c2cccc4ccccc24)C3)CC1CC#N (centres unmarked) [Compound 33, 2-(1-acryloyl-4-(7-(26aphthalene-1-yl)-2-((3-(pyrrolidin-1-yl)cyclopentyl)methoxy)-5,6,7,8-tetrahydropyrido[3,4-d]pyrimidin-4-yl)piperazin-2-yl)acetonitrile]	302		652
C=CC(=O)N1CCN(c2nc(OCC3(CN(C)C)CC3)nc3c2CCN(c2cccc4scnc24)C3)CC1CC#N (centres unmarked) [Compound 52, 2-(1-acryloyl-4-(7-(benzo[d]thiazol-4-yl)-2-((1-((dimethylamino)methyl)cyclopropyl)methoxy)-5,6,7,8-tetrahydropyrido[3,4-d]pyrimidin-4-yl)piperazin-2-yl)acetonitrile]	> 500	485	
C=CC(=O)N1CCN(c2nc(OCC3(CN(C)C)CC3)nc3c2CCN(c2cccc4c2OCC4)C3)CC1CC#N (centres unmarked) [Compound 53, 2-(1-acryloyl-4-(7-(2,3-dihydrobenzofuran-7-yl)-2-((1-((dimethylamino)methyl)cyclopropyl)methoxy)-5,6,7,8-tetrahydropyrido[3,4-d]pyrimidin-4-yl)piperazin-2-yl)acetonitrile]	> 500	174	
C=CC(=O)N1CCN(c2nc(OCC3(CN(C)C)CC3)nc3c2CCN(c2c(N)cccc2F)C3)CC1CC#N (centres unmarked) [Compound 55, 2-(1-acryloyl-4-(7-(2-amino-6-fluorophenyl)-2-((1-((dimethylamino)methyl)cyclopropyl)methoxy)-5,6,7,8-tetrahydropyrido[3,4-d]pyrimidin-4-yl)piperazin-2-yl)acetonitrile]		> 500	
C=CC(=O)N1CCN(c2nc(O[C@H]3CCCC[C@@H]3N(C)C)nc3c2CCN(c2cccc4ccccc24)C3)CC1CC#N (stereo partly drawn) [Compound 60, 2-(1-acryloyl-4-(2-(((1S,2S)-2-(dimethylamino)cyclohexyl)oxy)-7-(naphthalen-1-yl)-5,6,7,8-tetrahydropyrido[3,4-d]pyrimidin-4-yl)piperazin-2-yl)acetonitrile]	7120		
C=C(F)C(=O)N1CCN(c2nc(OCC3(CN(C)C)CC3)nc3c2CCN(c2cccc(C)c2C)C3)CC1CC#N (centres unmarked) [Compound 80, 2-(4-(2-((1-((dimethylamino)methyl)cyclopropyl)methoxy)-7-(2,3-dimethylphenyl)-5,6,7,8-tetrahydropyrido[3,4-d]pyrimidin-4-yl)-1-(2-fluoroacryloyl)piperazin-2-yl)acetonitrile]	> 500	285	
C=C(F)C(=O)N1CCN(c2nc(OCC3(CN4CCC(F)(F)C4)CC3)nc3c2CCN(c2cccc4cccc(C)c24)C3)CC1CC#N (centres unmarked) [Compound 81, 2-(4-(2-((1-((3,3-difluoropyrrolidin-1-yl)methyl)cyclopropyl)methoxy)-7-(8-methylnaphthalen-1-yl)-5,6,7,8-tetrahydropyrido[3,4-d]pyrimidin-4-yl)-1-(2-fluoroacryloyl)piperazin-2-yl)acetonitrile]		> 500	
C/C=C/C(=O)N1CCN(c2nc(OCC3(CN(C)C)CC3)nc3c2CCN(c2cccc(C)c2C)C3)CC1CC#N (centres unmarked) [Compound 82, (E)-2-(1-(but-2-enoyl)-4-(2-((1-((dimethylamino)methyl)cyclopropyl)methoxy)-7-(2,3-dimethylphenyl)-5,6,7,8-tetrahydropyrido[3,4-d]pyrimidin-4-yl)piperazin-2-yl)acetonitrile]	> 500	211	

Reference: patent US20210040089A1, “KRAS MUTANT PROTEIN INHIBITORS” (Jacobio Pharmaceuticals Co., Ltd., priority 2019, published 2021)
